Data reported in ChEMBL document CHEMBL5331078, “1-Benzyloxy-5-phenyltetrazole derivatives highly active against androgen receptor-dependent prostate cancer cells” (Eur J Med Chem, 2023).
pIC50: −log10 of the molar value.

Key:
[1] = tested on: PC-3; assay: Antiproliferative activity against human PC-3 cells measured after 3 days by celltiter-glo luminescence assay; assay type: functional, cell-based; details: PC-3, 72 h
[2] = tested on: CWR22R; assay: Antiproliferative activity against AR-v7 positive human 22Rv1 cells measured after 3 days by celltiter-glo luminescence assay; assay type: functional, cell-based; details: for pIC50: Homo sapiens, 22Rv1, 72 h, read-out: IC50; for IC50: cwr22r
[3] = Antiproliferative activity against Ar-luc mouse Adipose stromal cell measured after 3 days by celltiter-glo luminescence assay; assay type: toxicity, cell-based; details: Ar-luc mouse adipose stromal cells
[4] = Kinetic solubility of the compound in 0.01 M HCl at pH 2 after 30 mins by nephelometry; assay type: physicochemical; details: read-out: Kinetic_solubility
[5] = Kinetic solubility of the compound in phosphate buffer at pH 6.5 after 30 mins by nephelometry; assay type: physicochemical; details: read-out: Kinetic_solubility
[6] = Partition coefficient, logD of the compound at pH 7.4 by HPLC analysis; assay type: physicochemical; details: octanol/water
[7] = Metabolic stability in mouse liver microsomes assessed as half life incubated for 60 mins in presence of NADPH-regenerating system; assay type: ADME, Microsome; details: microsomes, 1 h
[8] = Metabolic stability in mouse liver microsomes assessed as intrinsic clearance incubated for 60 mins in presence of NADPH-regenerating system; assay type: ADME, Microsome; details: microsomes, 1 h
[9] = target: T1, Papain (Carica papaya, UniProt P00784); assay: Inhibition of papaya papain protease activity assessed as covalent binding mode of action at 10 uM incubated for 30 mins by absorbance based analysis; details: 0.5 h
T1 sequence (P00784 whole entry): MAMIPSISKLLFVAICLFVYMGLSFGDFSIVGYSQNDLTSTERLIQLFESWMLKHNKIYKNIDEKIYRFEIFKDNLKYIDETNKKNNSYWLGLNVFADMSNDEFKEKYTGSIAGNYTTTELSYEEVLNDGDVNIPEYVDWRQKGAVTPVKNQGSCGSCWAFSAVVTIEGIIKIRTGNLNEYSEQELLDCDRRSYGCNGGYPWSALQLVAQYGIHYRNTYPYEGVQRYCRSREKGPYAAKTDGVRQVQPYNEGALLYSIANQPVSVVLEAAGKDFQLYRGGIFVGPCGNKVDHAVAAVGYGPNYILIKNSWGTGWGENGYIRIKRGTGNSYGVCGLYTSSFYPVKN

Row | SMILES | pIC50 [1] | pIC50 [2] | IC50 at 3 days [3] | other results
1 | Clc1ccc(COn2nnnc2-c2cccnc2)cc1 | – | – | – | IC50 [2]: Not Active
2 | Clc1ccc(COn2nnnc2-c2ccc(Cl)cc2Cl)cc1 | < 4.00 | 5.42 | > 100 µM | –
3 | Cc1nn(C)c(Cl)c1-c1nnnn1OCc1cccc(Cl)c1 | – | – | – | IC50 [2]: Not Active
4 | Fc1ccc(-c2nnnn2OCc2ccnc(Cl)c2)cc1 | < 4.00 | 6.30 | 15 µM | –
5 | Clc1ccc(-c2nnnn2OCc2ccc(Cl)nc2)cc1 | < 4.00 | 6.41 | 3 µM | –
6 | Clc1cccc(COn2nnnc2-c2cccc(Cl)c2)c1 | < 4.00 | 7.44 | 10.6 µM | –
7 | Clc1ccc(COn2nnnc2-c2cccc(Cl)c2)cc1 | < 4.00 | 5.69 | 36.3 µM | –
8 | Fc1ccc(-c2nnnn2OCCc2ccc(Cl)cc2)cc1 | – | < 5.00 | – | –
9 | Fc1ccc(-c2nnnn2OCc2ccc(Cl)c(Cl)c2)cc1 | < 4.00 | 7.18 | 23.4 µM | –
10 | CC(C)(c1ccc(Cl)cc1)n1nnnc1-c1ccc(Cl)cc1 | – | < 5.00 | – | –
11 | O=C(Nn1nnnc1-c1ccccc1)c1ccc(Cl)cc1 | – | < 5.00 | – | –
12 | Cc1nn(C)c(Cl)c1-c1nnnn1OCc1ccc(Cl)cc1 | – | – | – | IC50 [2]: Not Active
13 | COc1ccc(-c2nnnn2OCc2cccc(Cl)c2)cc1 | < 4.00 | 7.64 | 6.8 µM | –
14 | Clc1cccc(COn2nnnc2-c2ccc(Cl)cc2Cl)c1 | < 4.00 | 6.40 | > 100 µM | –
15 | Clc1ccc(-c2nnnn2OCc2ccc(Cl)s2)cc1 | < 4.00 | 6.88 | > 60 µM | –
16 | Fc1ccc(-c2nnnn2OCc2ccc(Cl)s2)cc1 | < 4.00 | 5.43 | > 100 µM | –
17 | Clc1ccc(CCOn2nnnc2-c2ccc(Cl)cc2)cc1 | – | < 5.00 | – | –
18 | Fc1ccc(-c2nnnn2OCc2cccc(Cl)c2)cc1 | < 4.00 | 7.12 | > 60 µM | –
19 | Clc1ccc(CCn2nnnc2-c2ccc(Cl)cc2)cc1 | – | < 5.00 | – | –
20 | Fc1cccc(COn2nnnc2-c2ccc(Cl)cc2)c1 | < 4.00 | 7.92 | 2.6 µM | –
21 | CC(C)(On1nnnc1-c1ccc(Cl)cc1)c1ccc(Cl)cc1 | – | < 5.00 | – | –

Further lines, with some results ahead:

Row | pIC50 [1] | SMILES | pIC50 [2] | IC50 at 3 days [3] | other results
22 | < 5.00 | Fc1ccc(-c2nnnn2OC(F)(F)c2ccc(Cl)cc2)cc1 | < 5.00 | – | –
23 | < 5.00 | COc1ccc(-c2nnnn2OC(F)(F)c2ccccc2)cc1 | 5.27 | – | –
24 | 4.28 | Clc1ccc(-c2nnnn2OCc2ccc(Br)cc2)cc1 | 7.64 | 13.8 µM | –
25 | 4.38 | CNC(=O)c1ccc(N2C(=S)N(c3ccc(C#N)c(C(F)(F)F)c3)C(=O)C2(C)C)cc1F [ENZALUTAMIDE] | 4.44 | – | –
26 | < 4.00 | Clc1ccc(-c2nnnn2OCc2cccc(Br)c2)cc1 | 7.18 | > 100 µM | –
27 | 4.59 | Fc1ccc(COn2nnnc2-c2ccc(Cl)cc2)cc1 | 7.51 | 5.4 µM | –
28 | < 5.00 | COc1ccc(COn2nnnc2-c2ccc(Cl)cc2)cc1 | < 5.00 | – | –
29 | < 4.22 | Clc1ccc(-c2nnnn2OCc2ccc(Cl)c(Cl)c2)cc1 | 7.00 | > 60 µM | –
30 | 4.85 | Clc1ccc(-c2nnnn2OCc2ccnc(Cl)c2)cc1 | 7.66 | 7 µM | –
31 | 4.52 | COc1ccc(-c2nnnn2OCc2ccc(Cl)cc2)cc1 | 7.60 | 22.9 µM | –
32 | < 5.00 | COc1ccc(COn2nnnc2-c2ccc(OC)cc2)cc1 | 5.04 | – | –
33 | < 5.00 | Clc1ccc(-c2nnnn2OCC2CCCCC2)cc1 | < 5.00 | – | –
34 | 6.25 | Clc1ccc(-c2nnnn2OCc2ccccc2)cc1 | 7.40 | – | –
35 | < 5.00 | Fc1ccc(CO/N=C\c2ccc(Cl)cc2)cc1 | < 5.00 | – | –
36 | < 5.00 | CC(On1nnnc1-c1ccc(Cl)cc1)c1ccc(Cl)cc1 (stereo not drawn) | 5.77 | – | –
37 | < 5.00 | Fc1ccc(On2nnnc2-c2ccc(F)cc2)cc1 | < 5.00 | – | –
38 | 4.77 | FC(F)(F)c1cccc(COn2nnnc2-c2ccc(Cl)cc2)c1 | 6.58 | 4.9 µM | –
39 | < 5.00 | Clc1ccc(/C=N\OCc2ccc(Cl)cc2)cc1 | < 5.00 | – | –
40 | < 5.00 | Clc1ccc(On2nnnc2-c2ccc(Cl)cc2)cc1 | < 5.00 | – | –
41 | 5.17 | Clc1ccc(-c2nnnn2OCc2cccc(Cl)c2)cc1 | 7.14 | > 60 µM | solubility kinetic at 0.5 h [4]: < 1.6 µg/mL; solubility kinetic at 0.5 h [5]: < 1.6 µg/mL; logD [6]: 4.5; t1/2 [7]: 2.45 h; CLH [8]: 147 µL/min/mg
42 | < 5.00 | Fc1ccc(On2nnnc2-c2ccc(Cl)cc2)cc1 | < 5.00 | – | –
43 | < 5.00 | FC(F)(On1nnnc1-c1ccc(Cl)cc1)c1ccccc1 | < 5.00 | – | inhibition (INH) [9]: Not Active
44 | 4.32 | Fc1ccc(-c2nnnn2OCc2ccc(Cl)cc2)cc1 | 6.13 | > 100 µM | inhibition (INH) [9]: Not Active
45 | < 5.00 | Clc1cccc(COn2nnnc2-c2cccnc2)c1 | 5.45 | – | –
46 | < 5.00 | Clc1ccc(-c2nnnn2OCC2CC2)cc1 | < 5.00 | – | –
47 | < 5.00 | FC(F)(F)c1cccc(COn2nnnc2-c2cccc(C(F)(F)F)c2)c1 | < 5.00 | – | –
